Measurements taken from patent US20250206757A1 (GASHERBRUM BIO, INC., priority 2022, published 2025).

biological target: GLP-1 Receptor (Homo sapiens, UniProt P43220); experiment: GLP-1R agonist cAMP stimulation assay (HEK293/GLP1R/CRE-LUC cells, HTRF cAMP dynamic 2 kit); format: cell-based; conditions: HEK293/CRE-Luc cell line stably expressing the GLP-1 Receptor; 30 min incubation at 37° C.
Experimental: Activation of GLP-1 receptor is known to stimulate cyclic AMP (cAMP) production in cells which indicates primary coupling to the Gas subunit of the G protein heterotrimeric complex.
To optimize functional activity directed toward Gas coupling, a HEK293/CRE-Luc cell line developed by HDB stably expressing the GLP-1 Receptor was used. 200× concentration of compound working solutions were prepared (Agilent Technologies Bravo) with 1/2 log serial dilution in 384-well Echo LDV plate (Labcyte, Cat #LP-0200). 50 nL/well 200× concentration of compound working solutions were moved to 384-well white low volume plate (Greiner, Cat #784075) using Labcyte ECHO550. 1×10^5 cells/mL HEK293/GLP1R/CRE-LUC (HD Biosciences) cell suspensions prepared with assay buffer [DPBS containing 0.5 mM IBMX (Sigma, Cat #15879) and 0.10% BSA (GENVIEW, Cat #FA016-100g)], 10 μL cell suspensions were added to each well of previous generated assay plate which already contains 50 nL compound at 200× concentration using ThermoFisher Multidrop Combi (1000 cells/well). Seal the plate and incubate at 37° C. with 5% CO2 for 30 min.
After incubation the cAMP assay signal was generated using cAMP dynamic 2 Kit (Cisbio). 5 μL cAMP-d2 working solution was added to each well, followed with 5 μL Anti-cAMP antibody-cryptate working solution added to each well using ThermoFisher Multidrop Combi. Incubate at room temperature for 1 hour protected from light. Read the fluorescence at 665 and 615 nm with Reader PerkinElmer EnVision.

Sequence of GLP-1 Receptor (P43220 24-463): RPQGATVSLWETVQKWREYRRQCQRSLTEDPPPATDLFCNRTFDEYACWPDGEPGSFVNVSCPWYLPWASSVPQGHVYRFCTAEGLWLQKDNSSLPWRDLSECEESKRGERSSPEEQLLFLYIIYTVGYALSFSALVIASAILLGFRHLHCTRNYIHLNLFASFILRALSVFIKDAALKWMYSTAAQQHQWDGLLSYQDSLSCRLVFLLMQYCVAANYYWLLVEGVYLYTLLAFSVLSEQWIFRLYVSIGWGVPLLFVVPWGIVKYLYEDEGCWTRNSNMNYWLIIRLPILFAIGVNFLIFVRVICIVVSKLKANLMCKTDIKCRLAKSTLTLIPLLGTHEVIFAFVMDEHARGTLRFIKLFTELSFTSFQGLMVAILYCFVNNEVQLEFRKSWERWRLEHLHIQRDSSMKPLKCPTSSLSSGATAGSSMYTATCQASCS

Compound | EC50 [nM]
N#Cc1nnc(-c2cc3nc(CN4CCc5cc(C(F)(F)F)c(OCc6ccc(Cl)cc6F)nc5C4)n(C[C@@H]4CCO4)c3cn2)[nH]1 [Compound 20, 5-[2-({2-[(4-chloro-2-fluorophenyl)methoxy]-3-(trifluoromethyl)-5,6,7,8-tetrahydro-1,7-naphthyridin-7-yl}methyl)-3-{[(2S)-oxetan-2-yl]methyl}-3H-imidazo[4,5-c]pyridin-6-yl]-4H-1,2,4-triazole-3-carbonitrile] | < 1
Cc1nnc(-c2cc3nc(CN4CCc5cc(C(F)(F)F)c(OCc6ccc(Cl)cc6)nc5C4)n(C[C@@H]4CCO4)c3cn2)[nH]1 [Compound 61, 2-[(4-chlorophenyl)methoxy]-7-{[6-(5-methyl-4H-1,2,4-triazol-3-yl)-3-{1[(2S)-oxetan-2-yl]methyl}-3H-imidazo[4,5-c]pyridin-2-yl]methyl}-3-(trifluoromethyl)-5,6,7,8-tetrahydro-1,7-naphthyridine] | < 1
O=c1[nH]c(-c2cc3nc(CN4CCc5cc(C(F)(F)F)c(NCc6ccc(Cl)cc6F)nc5C4)n(C[C@@H]4CCO4)c3cn2)no1 [Compound 104, 3-{2-[(2-{[(4-chloro-2-fluorophenyl)methyl]amino}-3-(trifluoromethyl)-5,6,7,8-tetrahydro-1,7-naphthyridin-7-yl)methyl]-3-{[(2S)-oxetan-2-yl]methyl}-3H-imidazo[4,5-c]pyridin-6-yl}-4,5-dihydro-1,2,4-oxadiazol-5-one] | < 1
O=c1[nH]nc(-c2cc3nc(CN4CCc5cc(C(F)(F)F)c(OCc6ccc(Cl)cc6F)nc5C4)n(C[C@@H]4CCO4)c3cn2)o1 [Compound 96, 5-[2-({2-[(4-chloro-2-fluorophenyl)methoxy]-3-(trifluoromethyl)-5,6,7,8-tetrahydro-1,7-naphthyridin-7-yl}methyl)-3-{[(2S)-oxetan-2-yl]methyl}-3H-imidazo[4,5-c]pyridin-6-yl]-2,3-dihydro-1,3,4-oxadiazol-2-one] | < 1
N#Cc1nnc(-c2cc3nc(CN4CCc5cc(Cl)c(OCc6ccc(Cl)cc6F)nc5C4)n(C[C@@H]4CCO4)c3cn2)[nH]1 [Compound 8, 5-[2-({3-chloro-2-[(4-chloro-2-fluorophenyl)methoxy]-5,6,7,8-tetrahydro-1,7-naphthyridin-7-yl}methyl)-3-{[(2S)-oxetan-2-yl]methyl}-3H-imidazo[4,5-c]pyridin-6-yl]-4H-1,2,4-triazole-3-carbonitrile] | < 1
FC(F)(F)c1nnc(-c2cc3nc(CN4CCc5cc(C(F)(F)F)c(OCc6ccc(Cl)cn6)nc5C4)n(C[C@@H]4CCO4)c3cn2)[nH]1 [Compound 74, 2-[(5-chloropyridin-2-yl)methoxy]-7-[(3-{[(2S)-oxetan-2-yl]methyl}-6-[5-(trifluoromethyl)-4H-1,2,4-triazol-3-yl]-3H-imidazo[4,5-c]pyridin-2-yl)methyl]-3-(trifluoromethyl)-5,6,7,8-tetrahydro-1,7-naphthyridine] | < 1
Fc1cc(Cl)ccc1COc1nc2c(cc1C(F)(F)F)CCN(Cc1nc3cc(-c4nnc(C5CC5)[nH]4)ncc3n1C[C@@H]1CCO1)C2 [Compound 65, 2-[(4-chloro-2-fluorophenyl)methoxy]-7-{[6-(5-cyclopropyl-4H-1,2,4-triazol-3-yl)-3-{1[(2S)-oxetan-2-yl]methyl}-3H-imidazo[4,5-c]pyridin-2-yl]methyl}-3-(trifluoromethyl)-5,6,7,8-tetrahydro-1,7-naphthyridine] | < 1
Fc1cc(Cl)cc(F)c1COc1nc2c(cc1C(F)(F)F)CCN(Cc1nc3cc(-c4nnn[nH]4)ncc3n1C[C@@H]1CCO1)C2 [Compound 90, 2-[(4-chloro-2,6-difluorophenyl)methoxy]-7-[(3-{[(2S)-oxetan-2-yl]methyl}-6-(11H-1,2,3,4-tetrazol-5-yl)-3H-imidazo[4,5-c]pyridin-2-yl)methyl]-3-(trifluoromethyl)-5,6,7,8-tetrahydro-1,7-naphthyridine] | < 1
CC(c1nc2cc(-c3nnc(C(F)(F)F)[nH]3)ncc2n1C[C@@H]1CCO1)N1CCc2cc(C(F)(F)F)c(OCc3ccc(Cl)cc3F)nc2C1 (stereo partly drawn) [Compound 82, 2-[(4-chloro-2-fluorophenyl)methoxy]-7-[1-(3-{[(2S)-oxetan-2-yl]methyl}-6-[5-(trifluoromethyl)-4H-1,2,4-triazol-3-yl]-3H-imidazo[4,5-c]pyridin-2-yl)ethyl]-3-(trifluoromethyl)-5,6,7,8-tetrahydro-1,7-naphthyridine] | < 1
O=c1[nH]c(-c2ccc3c(c2)nc(CN2CCc4cc(C(F)(F)F)c(OCc5ccc(Cl)cc5F)nc4C2)n3C[C@@H]2CCO2)no1 [Compound 36, 3-[2-({2-[(4-chloro-2-fluorophenyl)methoxy]-3-(trifluoromethyl)-5,6,7,8-tetrahydro-1,7-naphthyridin-7-yl}methyl)-1-{1[(2S)-oxetan-2-yl]methyl}-1H-1,3-benzodiazol-5-yl]-4,5-dihydro-1,2,4-oxadiazol-5-one] | < 1
Cc1cc2c(nc1OCc1c(F)cc(Cl)cc1F)CN(Cc1nc3cc(-c4nnc(C(F)F)[nH]4)cnc3n1C[C@@H]1CCO1)CC2 [Compound 53, 2-[(4-chloro-2,6-difluorophenyl)methoxy]-7-({6-[5-(difluoromethyl)-4H-1,2,4-triazol-3-yl]-3-{1[(2S)-oxetan-2-yl]methyl}-3H-imidazo[4,5-b]pyridin-2-yl}methyl)-3-methyl-5,6,7,8-tetrahydro-1,7-naphthyridine] | < 1
N#Cc1ccc(COc2nc3c(cc2C(F)(F)F)CCN(Cc2nc4cc(-c5nnc(C(F)(F)F)[nH]5)ncc4n2C[C@@H]2CCO2)C3)c(F)c1 [Compound 75, 3-fluoro-4-[({7-[(3-{[(2S)-oxetan-2-yl]methyl}-6-[5-(trifluoromethyl)-4H-1,2,4-triazol-3-yl]-3H-imidazo[4,5-c]pyridin-2-yl)methyl]-3-(trifluoromethyl)-5,6,7,8-tetrahydro-1,7-naphthyridin-2-yl}oxy)methyl]benzonitrile] | < 1
NC(=O)c1nnc(-c2cc3nc(CN4CCc5cc(C(F)(F)F)c(NCc6ccc(Cl)cc6F)nc5C4)n(C[C@@H]4CCO4)c3cn2)[nH]1 [Compound 107, 5-{2-[(2-{[(4-chloro-2-fluorophenyl)methyl]amino}-3-(trifluoromethyl)-5,6,7,8-tetrahydro-1,7-naphthyridin-7-yl)methyl]-3-{[(2S)-oxetan-2-yl]methyl}-3H-imidazo[4,5-c]pyridin-6-yl}-4H-1,2,4-triazole-3-carboxamide] | < 1
Fc1cc(Cl)ccc1COc1nc2c(cc1C(F)F)CCN(Cc1nc3cc(-c4nnc(C(F)(F)F)[nH]4)ncc3n1C[C@@H]1CCO1)C2 [Compound 72, 2-[(4-chloro-2-fluorophenyl)methoxy]-3-(difluoromethyl)-7-[(3-{[(2S)-oxetan-2-yl]methyl}-6-[5-(trifluoromethyl)-4H-1,2,4-triazol-3-yl]-3H-imidazo[4,5-c]pyridin-2-yl)methyl]-5,6,7,8-tetrahydro-1,7-naphthyridine] | < 1
Cc1cc2c(nc1OCc1c(F)cc(Cl)cc1F)CN(Cc1nc3nc(-c4noc(=O)[nH]4)ccc3n1C[C@@H]1CCO1)CC2 [Compound 50, 3-[2-({2-[(4-chloro-2,6-difluorophenyl)methoxy]-3-methyl-5,6,7,8-tetrahydro-1,7-naphthyridin-7-yl}methyl)-1-{1[(2S)-oxetan-2-yl]methyl}-1H-imidazo[4,5-b]pyridin-5-yl]-4,5-dihydro-1,2,4-oxadiazol-5-one] | < 1
FC(F)c1ccc(COc2nc3c(cc2C(F)(F)F)CCN(Cc2nc4cc(-c5nnc(C(F)(F)F)[nH]5)ncc4n2C[C@@H]2CCO2)C3)cc1 [Compound 73, 2-{[4-(difluoromethyl)phenyl]methoxy}-7-[(3-{[(2S)-oxetan-2-yl]methyl}-6-[5-(trifluoromethyl)-4H-1,2,4-triazol-3-yl]-3H-imidazo[4,5-c]pyridin-2-yl)methyl]-3-(trifluoromethyl)-5,6,7,8-tetrahydro-1,7-naphthyridine] | < 1
CSc1nnc(-c2ccc3c(c2)nc(CN2CCc4cc(C(F)(F)F)c(OCc5ccc(Cl)cc5F)nc4C2)n3C[C@@H]2CCO2)[nH]1 [Compound 86, 2-[(4-chloro-2-fluorophenyl)methoxy]-7-({5-[5-(methylsulfanyl)-4H-1,2,4-triazol-3-yl]-1-{[(2S)-oxetan-2-yl]methyl}-1H-1,3-benzodiazol-2-yl}methyl)-3-(trifluoromethyl)-5,6,7,8-tetrahydro-1,7-naphthyridine] | < 1
FC(F)(F)c1cc2c(nc1OCc1ccc(Cl)cc1)CN(Cc1nc3cc(-c4nnc[nH]4)ncc3n1C[C@@H]1CCO1)CC2 [Compound 64, 2-[(4-chlorophenyl)methoxy]-7-[(3-{[(2S)-oxetan-2-yl]methyl}-6-(4H-1,2,4-triazol-3-yl)-3H-imidazo[4,5-c]pyridin-2-yl)methyl]-3-(trifluoromethyl)-5,6,7,8-tetrahydro-1,7-naphthyridine] | 1 to 300
